Experimental data: ChEMBL document CHEMBL1781912, “In search of patterns over physicochemical properties and pharmacological activities for a set of [MCl₂(thiosemicarbazone)] complexes (M=Pt/Pd): support for multiple mechanisms of antichagasic action excluding DNA-bonding in vivo?” (Eur J Med Chem, 2011)

System: Trypanosoma cruzi
Experiment: Antichagasic activity against Trypanosoma cruzi Tulahuen 2
Type: functional, organism-based

Row | IC50 | Compound
1 | 5 µM | CNC(=S)N/N=C/c1ccc([N+](=O)[O-])o1
2 | 3.6 µM | O=[N+]([O-])c1ccc(/C=C/C=N/NC(=S)Nc2ccccc2)o1
3 | 4.9 µM | CCNC(=S)N/N=C/c1ccc([N+](=O)[O-])o1
4 | 2.7 µM | NC(=S)N/N=C/c1ccc([N+](=O)[O-])o1
5 | 4.5 µM | CNC(=S)N/N=C/C=C/c1ccc([N+](=O)[O-])o1
6 | 3.5 µM | NC(=S)N/N=C\C=C\c1ccc([N+](=O)[O-])o1
7 | 6.1 µM | CC1CS(=O)(=O)CCN1/N=C/c1ccc([N+](=O)[O-])o1 (centres undefined) [NIFURTIMOX]
8 | > 25 µM | O=[N+]([O-])c1ccc(/C=N/NC(=S)Nc2ccccc2)o1
9 | 4.1 µM | CCNC(=S)N/N=C/C=C/c1ccc([N+](=O)[O-])o1
